The numbers were not newly measured in patent EP3336085A1, “PROCESS AND INTERMEDIATE FOR THE PREPARATION OF 1-(4-(2-((1-(3,4-DIFLUOROPHENYL)-1H-PYRAZOL-3-YL)METHOXY)ETHYL)PIPERAZIN-1-YL)ETHANONE” (Laboratorios del Dr. Esteve S.A., priority 2016, dated 2018), which cites them from elsewhere.

One data set addresses sigma-1 (σ1) receptor (Homo sapiens, UniProt Q99720).

Where two headings read alike, the source gives them in different places.

sigma-1 (σ1) receptor, sequence (Q99720 whole entry): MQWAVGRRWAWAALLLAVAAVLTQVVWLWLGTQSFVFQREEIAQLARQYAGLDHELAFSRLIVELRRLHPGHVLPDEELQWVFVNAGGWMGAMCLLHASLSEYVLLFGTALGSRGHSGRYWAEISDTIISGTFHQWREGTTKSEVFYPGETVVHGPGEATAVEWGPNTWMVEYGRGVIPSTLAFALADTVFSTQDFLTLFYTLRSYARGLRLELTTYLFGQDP

In the case of `CC(=O)N1CCN(CCOCc2ccn(-c3ccc(F)c(F)c3)n2)CC1.Cl` [1-(4-(2-((1-(3,4-difluorophenyl)-1 H-pyrazol-3-yl)methoxy)ethyl)piperazin-1-yl)ethanone hydrochloride], the water solubility entry (pH=2) was “very soluble” and the water solubility entry (pH=7.4) was “very soluble”. Also, on sigma-1 (σ1) receptor, the “sigma-1 (σ1) receptor antagonist selectivity” value is reported as “highly selective”.
